{
  "source": "paper PMC6349357",
  "about": "“Computational and experimental analysis of bioactive peptide linear motifs in the integrin adhesome” (PLoS ONE, 2019)",
  "key": {"TRAP-activated platelets": {"test_system": "TRAP-activated platelets", "assay": "Inhibition of TRAP-induced platelet aggregation after pre-incubation with peptide", "type": "cell-based, human (healthy volunteers)", "method_in_brief": "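Washed human platelets (from ACD blood, PGE1-treated) were used at 3x10^5/μl in buffer A pH 7.4 with 1.8 mM CaCl2. Light-transmission aggregometry ran at 37°C with stirring at 1100 rpm. Peptide or buffer was added at 2 min, TRAP 6 min later, and aggregation was recorded for a further 7 min.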"}, "vinculin in HeLa cells": {"target": "T1, vinculin in HeLa cells (Homo sapiens, UniProt P18206)", "T1 construct": "endogenous in cells; host or cells: HeLa", "T1 sequence (P18206 1-1066 isoform P18206-2)": "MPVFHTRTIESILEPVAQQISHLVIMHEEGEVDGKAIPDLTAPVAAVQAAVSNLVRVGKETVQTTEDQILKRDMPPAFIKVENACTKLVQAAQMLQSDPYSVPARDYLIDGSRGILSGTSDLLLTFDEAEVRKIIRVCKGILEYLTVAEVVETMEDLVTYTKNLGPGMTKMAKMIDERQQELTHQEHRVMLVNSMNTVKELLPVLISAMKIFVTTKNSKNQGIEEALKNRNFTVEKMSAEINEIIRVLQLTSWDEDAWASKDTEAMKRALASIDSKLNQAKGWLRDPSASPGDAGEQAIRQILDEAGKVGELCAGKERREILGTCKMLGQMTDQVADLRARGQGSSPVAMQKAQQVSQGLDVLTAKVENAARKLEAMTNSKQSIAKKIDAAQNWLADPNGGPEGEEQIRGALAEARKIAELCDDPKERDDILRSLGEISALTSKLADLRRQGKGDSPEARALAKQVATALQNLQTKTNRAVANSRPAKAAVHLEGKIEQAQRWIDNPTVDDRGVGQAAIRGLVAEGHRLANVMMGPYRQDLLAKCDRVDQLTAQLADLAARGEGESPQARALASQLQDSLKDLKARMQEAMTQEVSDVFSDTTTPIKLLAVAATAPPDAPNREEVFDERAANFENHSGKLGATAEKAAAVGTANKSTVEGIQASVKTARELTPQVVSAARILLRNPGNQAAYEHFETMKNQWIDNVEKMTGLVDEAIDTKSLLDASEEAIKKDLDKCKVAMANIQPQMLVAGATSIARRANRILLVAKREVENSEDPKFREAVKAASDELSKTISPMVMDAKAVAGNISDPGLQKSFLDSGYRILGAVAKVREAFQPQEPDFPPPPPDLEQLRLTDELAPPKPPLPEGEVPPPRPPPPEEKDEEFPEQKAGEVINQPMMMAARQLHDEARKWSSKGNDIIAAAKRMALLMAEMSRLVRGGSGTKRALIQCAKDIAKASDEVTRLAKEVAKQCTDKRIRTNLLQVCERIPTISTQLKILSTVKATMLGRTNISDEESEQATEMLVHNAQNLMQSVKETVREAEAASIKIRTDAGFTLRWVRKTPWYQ", "assay": "Co-localization of 5FAM-labeled peptide with vinculin in HeLa cells (microscopy)", "type": "cell-based", "conditions": "15 μM, 5-15 minutes", "experimental": "HeLa cells were seeded on a 24-well plate with inserted coverslips at a density of 30000 cells/well. After 24h the cells were treated with 15 μM peptide for the desired amount of time (5, 10, 15 minutes). Cells were then fixed in 3% paraformaldehyde (PFA, Sigma) for 20 minutes and permeabilized with 0.1% Triton X-100 (Sigma) for 5 minutes at room temperature. Cells were then washed 3 times with PBS and stained with antibodies. Staining with primary antibody (paxillin/vinculin (Abcam)) was performed for 30 minutes, followed by three PBS washes and secondary staining using goat anti-mouse Alexa 568 antibody (Life Technologies) for 30 minutes. Then the nuclei were stained with 0.2 μg/ml Hoechst33342, the coverslips were thoroughly washed with PBS and mounted on glass slides with Mowiol mounting medium. The slides were then imaged on a FluoView FV1000 laser scanning microscope (Olympus) with 60x UPLSAPO 1.35NA (Olympus) oil immersion objective."}},
  "note": "Marks after values point to notes of the source that are not given here.",
  "data": [
    {"substance": "tat-WEQLLTTIARTINEVENQI-(NH2) [tat-ACTN1_VBS]", "values": [
      {"measurement": "Aggregation after TRAP, peptide alone 1x (A 1x / B 1x)", "setting": "TRAP-activated platelets; TRAP 2 μM after 6 minutes pre-incubation, 4 μM pal-peptides, 10 μM tat-peptides, mean n = 3", "result": 68.33},
      {"measurement": "Aggregation after TRAP, peptide alone 2x (A 2x / B 2x)", "setting": "TRAP-activated platelets; TRAP 2 μM after 6 minutes pre-incubation, double concentration of 4 μM (pal) / 10 μM (tat), mean n = 3", "result": 68.67},
      {"measurement": "Platelet aggregation after TRAP activation", "setting": "TRAP-activated platelets; platelet aggregation induced by 4 μM TRAP in platelets pre-incubated with peptide (low value = inhibition), pal-peptides 20 μM, tat-peptides 50 μM, mean, n>=3", "result": "61 ^*"},
      {"measurement": "Aggregation after TRAP activation, donor e", "setting": "TRAP-activated platelets; replicate donor e, TRAP 4 μM, pal 20 μM, tat 50 μM", "result": 66},
      {"measurement": "Aggregation after TRAP activation, donor k", "setting": "TRAP-activated platelets; replicate donor k, TRAP 4 μM, pal 20 μM, tat 50 μM", "result": 51},
      {"measurement": "Aggregation after TRAP activation, donor l", "setting": "TRAP-activated platelets; replicate donor l, TRAP 4 μM, pal 20 μM, tat 50 μM", "result": 68},
      {"measurement": "Co-localization with vinculin", "setting": "vinculin in HeLa cells", "result": "co-localized with vinculin"}
    ]}
  ]
}
